Experimental data published in patent publication US20260258035A1, “FIVE-MEMBERED AND SIX-MEMBERED NITROGEN-CONTAINING COMPOUND, AND INTERMEDIATE, PREPARATION METHOD AND USE THEREOF” (HANGZHOU SYNRX THERAPEUTICS BIOMEDICAL TECHNOLOGY CO., LTD., priority 2022, published 2026).
Read-outs that look alike come from different tables or passages of the source.

Assays:
PARG = PARG (Homo sapiens, UniProt Q86W56); test: Biochemical assay (PARG, TFMU-ADPr substrate)
[1] = system: Human breast squamous carcinoma cells HCC1806; test: Cell function assay (In-Cell Western, PAR/pADPr after MMS); assay type: cell-based
Method: 2. Cell Function Assay (In-Cell Western)
• 1) Human breast squamous carcinoma cells HCC1806 (ATCC) were seeded to the 384-well plate (Corning, #3764) at 20,000 cells/well, incubated for 24 h in a CO2 (5%) incubator at 37° C. to allow for complete adherence of the cells; • 2) 120 nL compounds or DMSO were added to the 384-well plate by Echo 550 (LABCYTE, #550) (final concentrations of compounds: 30000 nM, 10000 nM, 3000 nM, 1000 nM, 300 nM, 100 nM, 30 nM, 10 nM, 3 nM, 1 nM, 0 nM), and then the cells were incubated for 1 h in a CO2 (5%) incubator at 37° C.; • 3) 40 nL MMS (methyl mesylate, Sigma, #129925)(final concentration: 0.5 mM) was added to the plate by Echo 550, and the cells were treated for 1 h in a CO2 (5%) incubator at 37° C.

HCC1806 = test: Cell viability assay (CellTiter-Glo); assay type: cell-based, Human; settings: HCC1806, 7 days, CellTiter-Glo, read-out: IC50 (nM) in cell viability assay
[2] = 4 nM PARG, 66.2 uM TFMU-ADPr, 3 min at room temperature
[3] = HCC1806, In-Cell Western, MMS treatment, read-out: IC50 (nM) in cell function assay
[4] = HCC1806, compound 1 h then 0.5 mM MMS 1 h, PAR/pADPr antibody, In-Cell Western, read-out: IC50 (nM) in cell function assay

PARG, sequence (Q86W56 whole entry): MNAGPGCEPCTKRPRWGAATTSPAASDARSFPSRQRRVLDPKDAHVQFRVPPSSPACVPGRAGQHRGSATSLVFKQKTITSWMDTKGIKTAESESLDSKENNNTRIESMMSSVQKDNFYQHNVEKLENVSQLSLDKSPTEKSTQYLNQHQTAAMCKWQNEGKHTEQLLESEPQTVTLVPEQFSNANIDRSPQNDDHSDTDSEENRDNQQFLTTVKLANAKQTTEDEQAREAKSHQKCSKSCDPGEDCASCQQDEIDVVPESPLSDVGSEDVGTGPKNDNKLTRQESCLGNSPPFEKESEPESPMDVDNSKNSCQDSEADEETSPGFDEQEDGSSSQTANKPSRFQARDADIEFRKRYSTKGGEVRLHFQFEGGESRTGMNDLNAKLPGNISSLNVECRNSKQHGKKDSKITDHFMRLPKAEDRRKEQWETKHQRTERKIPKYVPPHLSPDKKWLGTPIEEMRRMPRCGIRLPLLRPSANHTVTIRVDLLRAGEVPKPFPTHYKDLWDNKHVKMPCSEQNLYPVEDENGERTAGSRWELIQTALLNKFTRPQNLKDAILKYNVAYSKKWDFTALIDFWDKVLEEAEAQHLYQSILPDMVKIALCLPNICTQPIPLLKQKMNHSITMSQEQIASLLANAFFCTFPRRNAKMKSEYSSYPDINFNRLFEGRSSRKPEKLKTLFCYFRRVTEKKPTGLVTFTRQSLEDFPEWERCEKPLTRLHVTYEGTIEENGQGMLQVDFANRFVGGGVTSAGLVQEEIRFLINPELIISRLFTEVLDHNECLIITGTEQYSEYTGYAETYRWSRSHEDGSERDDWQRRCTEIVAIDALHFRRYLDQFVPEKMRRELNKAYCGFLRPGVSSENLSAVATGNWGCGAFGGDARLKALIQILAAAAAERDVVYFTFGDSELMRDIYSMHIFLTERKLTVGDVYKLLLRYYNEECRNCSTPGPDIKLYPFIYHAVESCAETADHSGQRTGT

Row | Compound | IC50 (PARG; [2]) | IC50 (PARG; PARG, TFMU-ADPr substrate) | IC50 [1, 3] | IC50 (HCC1806) | IC50 (HCC1806; Homo sapiens, HCC1806, 168 h) | IC50 [1, 4] | IC50 ([1]; HCC1806, 1 h, read-out: IC50 (nM) in cell function assay) | IC50 ([1]; HCC1806, read-out: IC50 (nM) in cell function assay)
1 | CC(C)C(=O)N1CC=C(c2cc(S(=O)(=O)NC3(C#N)CC3)cn3c(-c4nnc(C(F)F)s4)cnc23)CC1 [Example 12, N-(1-cyanocyclopropyl)-3-(5-(difluoromethyl)-1,3,4-thiadiazol-2-yl)-8-(1-isobutyryl-1,2,3,6-tetrahydropyridin-4-yl)imidazo[1,2-a]pyridine-6-sulfonamide] | < 100 nM | 2.4 nM | 9.15 nM | 500 nM | < 500 nM |  |  | 
2 | CC(C)C(=O)N1CC2(CC=C(c3nc(-c4nnc(C(F)F)s4)n4cc(S(=O)(=O)NC5(C#N)CC5)ccc34)C2)C1 [Example 24, N-(1-cyanocyclopropyl)-3-(5-(difluoromethyl)-1,3,4-thiadiazol-2-yl)-1-(2-isobutyryl-2-azaspiro[3.4]oct-6-en-6-yl)imidazo[1,5-a]pyridine-6-sulfonamide] | < 100 nM | 2.46 nM | 52.6 nM | 500 nM | < 500 nM | < 100 nM |  | 
3 | CC(C)C(=O)N1CCN(c2cc(S(=O)(=O)NC3(C)CC3)cn3c(-c4nnc(C(F)F)s4)ncc23)CC1 [Example 34, 3-(5-(difluoromethyl)-1,3,4-thiadiazol-2-yl)-8-(4-isobutyrylpiperazin-1-yl)-N-(1-methylcyclopropyl)imidazo[1,5-a]pyridine-6-sulfonamide] | < 100 nM | 1.22 nM | 5.77 nM |  | < 500 nM | < 100 nM |  | 
4 | CC(C)C(=O)N1CCN(c2cc(S(=O)(=O)NC3(CO)CC3)cn3c(-c4nnc(C(F)F)s4)ncc23)CC1 [Example 37, 3-(5-(difluoromethyl)-1,3,4-thiadiazol-2-yl)-N-(1-(hydroxymethyl)cyclopropyl)-8-(4-isobutyrylpiperazin-1-yl)imidazo[1,5-a]pyridine-6-sulfonamide] | < 100 nM | 4.7 nM | 166 nM |  | 2670 nM |  |  | 
5 | CC(C)C(=O)N1CCN(c2cc(S(=O)(=O)NC3(C)COC3)cn3c(-c4nnc(C(F)F)s4)ncc23)CC1 [Example 43, 3-(5-(difluoromethyl)-1,3,4-thiadiazol-2-yl)-8-(4-isobutyrylpiperazin-1-yl)-N-(3-methyloxetan-3-yl)imidazo[1,5-a]pyridine-6-sulfonamide] | < 100 nM | 0.96 nM | 9.32 nM | 283 nM | < 500 nM | < 100 nM |  | 
6 | CC(C)C(=O)N1CCN(c2c(F)c(S(=O)(=O)NC3(C#N)CC3)cn3c(-c4nnc(C(F)F)s4)ncc23)CC1 [Example 52, N-(1-cyanocyclopropyl)-3-(5-(difluoromethyl)-1,3,4-thiadiazol-2-yl)-7-fluoro-8-(4-isobutyrylpiperazin-1-yl)imidazo[1,5-a]pyridine-6-sulfonamide] | < 100 nM | 3.66 nM | 53.2 nM | 738 nM | 500 to 5000 nM | 100 to 500 nM |  | 
7 | CC(C)C(=O)N1CCN(c2cc(S(=O)(=O)NC34CC(C3)C4)cn3c(-c4nnc(C(F)F)s4)ncc23)CC1 [Example 54, N-(bicyclo[1.1.1]pentan-1-yl)-3-(5-(difluoromethyl)-1,3,4-thiadiazol-2-yl)-8-(4-isobutyrylpiperazin-1-yl)imidazo[1,5-a]pyridine-6-sulfonamide] | < 100 nM | 11.4 nM | 26.5 nM | 9380 nM | 5000 to 30000 nM | < 100 nM |  | 
8 | CC1(NS(=O)(=O)c2cc(N3CCC4(CC3)COC4)c3cnc(-c4nnc(C(F)F)s4)n3c2)COC1 [Example 56, 3-(5-(difluoromethyl)-1,3,4-thiadiazol-2-yl)-N-(3-methyloxetan-3-yl)-8-(2-oxa-7-azaspiro[3.5]nonan-7-yl)imidazo[1,5-a]pyridine-6-sulfonamide] | < 100 nM | 0.86 nM | 22.9 nM | 802 nM | 500 to 5000 nM | < 100 nM |  | 
9 | C#CC1(NS(=O)(=O)c2cc(N3CCN(C(=O)C(C)C)CC3)c3nnc(-c4nnc(C(F)F)s4)n3c2)COC1 [Example 101, 3-(5-(difluoromethyl)-1,3,4-thiadiazol-2-yl)-N-(3-ethynyloxetan-3-yl)-8-(4-isobutyrylpiperazin-1-yl)-[1,2,4]triazolo[4,3-a]pyridine-6-sulfonamide] | < 100 nM | 8.15 nM | 1540 nM |  |  | > 1000 nM |  | 
10 | CC(C)C(=O)N1CCN(c2cc(S(=O)(=O)NC3(C)COC3)cn3c(-c4nnc(C(F)F)s4)nnc23)CC1 [Example 103, 3-(5-(difluoromethyl)-1,3,4-thiadiazol-2-yl)-8-(4-isobutyrylpiperazin-1-yl)-N-(3-methyloxetan-3-yl)-[1,2,4]triazolo[4,3-a]pyridine-6-sulfonamide] | < 100 nM | 1.5 nM | 33.6 nM |  |  | < 100 nM |  | 
11 | O=S(=O)(NC1(CF)CC1)c1cc(N2CCC3(CC2)COC3)c2nnc(-c3nnc(C(F)F)s3)n2c1 [Example 104, 3-(5-(difluoromethyl)-1,3,4-thiadiazol-2-yl)-N-(1-(fluoromethyl)cyclopropyl)-8-(2-oxa-7-azaspiro[3.5]nonan-7-yl)-[1,2,4]triazolo[4,3-a]pyridine-6-sulfonamide] | < 100 nM | 0.65 nM | 9.76 nM |  |  | < 100 nM |  | 
12 | CN1CC2(CCN(c3cc(S(=O)(=O)NC4(CF)CC4)cn4c(-c5nnc(C(F)F)s5)nnc34)CC2)CC1=O [Example 112, 3-(5-(difluoromethyl)-1,3,4-thiadiazol-2-yl)-N-(1-(fluoromethyl)cyclopropyl)-8-(2-methyl-3-oxo-2,8-diazaspiro[4.5]decan-8-yl)-[1,2,4]triazolo[4,3-a]pyridine-6-sulfonamide] | < 100 nM | 3.67 nM | 36.3 nM |  |  | < 100 nM |  | 
13 | O=S(=O)(NC1(CF)CC1)c1cc(N2CC3(COCCO3)C2)c2nnc(-c3nnc(C(F)F)s3)n2c1 [Example 113, 3-(5-(difluoromethyl)-1,3,4-thiadiazol-2-yl)-N-(1-(fluoromethyl)cyclopropyl)-8-(5,8-dioxa-2-azaspiro[3.5]nonan-2-yl)-[1,2,4]triazolo[4,3-a]pyridine-6-sulfonamide] | < 100 nM | 5.2 nM | 9 nM |  |  | < 100 nM |  | 
14 | O=S(=O)(NC1(CF)CC1)c1cc(N2CCC(O)(C(F)(F)F)CC2)c2nnc(-c3nnc(C(F)F)s3)n2c1 [Example 115, 3-(5-(difluoromethyl)-1,3,4-thiadiazol-2-yl)-N-(1-(fluoromethyl)cyclopropyl)-8-(4-hydroxy-4-(trifluoromethyl)piperidin-1-yl)-[1,2,4]triazolo[4,3-a]pyridine-6-sulfonamide] | < 100 nM | 1.88 nM | 8.51 nM |  |  | < 100 nM |  | 
15 | CC(C)C(=O)N1CCN(c2cc(S(=O)(=O)NC3(C#N)CC3)cn3c(-c4nnc(C(F)F)s4)nc(Cl)c23)CC1 [Example 122, 1-chloro-N-(1-cyanocyclopropyl)-3-(5-(difluoromethyl)-1,3,4-thiadiazol-2-yl)-8-(4-isobutyrylpiperazin-1-yl)imidazo[1,5-a]pyridine-6-sulfonamide] | < 100 nM | 3.16 nM | 4.58 nM |  |  | < 100 nM |  | 
16 | CC(C)C(=O)N1CCN(c2cc(S(=O)(=O)NC3(C(F)F)COC3)cn3c(-c4nnc(C(F)F)s4)ncc23)CC1 [Example 149, 3-(5-(difluoromethyl)-1,3,4-thiadiazol-2-yl)-N-(3-(difluoromethyl)oxetan-3-yl)-8-(4-isobutyrylpiperazin-1-yl)imidazo[1,5-a]pyridine-6-sulfonamide] | < 100 nM | 6.23 nM | 57.7 nM |  |  | < 100 nM |  | 
17 | [2H]c1nc(-c2nnc(C(F)F)s2)n2cc(S(=O)(=O)NC3(CF)COC3)c(F)c(N3CCN(C(=O)C(C)C)CC3)c12 [Example 154, 3-(5-(difluoromethyl)-1,3,4-thiadiazol-2-yl)-7-fluoro-N-(3-(fluoromethyl)oxetan-3-yl)-8-(4-isobutyrylpiperazin-1-yl)imidazo[1,5-a]pyridine-6-sulfonamide-1-d] | < 100 nM | 8.22 nM | 9.94 nM |  |  | < 100 nM |  | 
18 | [2H]C([2H])([2H])C1(NS(=O)(=O)c2cc(N3CCN(C(=O)C(C)C)CC3)c3cnc(-c4nnc(C(F)F)s4)n3c2)CC1 [Example 161, 3-(5-(difluoromethyl)-1,3,4-thiadiazol-2-yl)-8-(4-isobutyrylpiperazin-1-yl)-N-(1-(methyl-d3)cyclopropyl)imidazo[1,5-a]pyridine-6-sulfonamide] | < 100 nM | 0.88 nM |  |  |  |  | < 100 nM | 1.02 nM
19 | CC(C)C(=O)N1CCN(c2cc(S(=O)(=O)NC3(C)CC3)cn3c(-c4nnc(C(F)F)s4)nc(C#N)c23)CC1 [Example 163, 1-cyano-3-(5-(difluoromethyl)-1,3,4-thiadiazol-2-yl)-8-(4-isobutyrylpiperazin-1-yl)-N-(1-methylcyclopropyl)imidazo[1,5-a]pyridine-6-sulfonamide] | < 100 nM | 1.58 nM | 5.14 nM |  |  | < 100 nM |  | 
